Measured values reported in article PMC12152147, “DDB1 engagement defines the selectivity of S656 analogs for cyclin K degradation over CDK inhibition” (EMBO Reports, 2025).
Values joined by “and” are separate entries in the source; they are usually repeats but may differ in a detail not shown here. Equal entries are not always repeated. Where two headings read alike, the source gives them in different places.

Assays:
[1] = target: T1, CDK9/CyclinT (Homo sapiens, UniProt P50750); experiment: CDK9/CyclinT in vitro kinase activity, single concentration 1 μM; assay type: biochemical; conditions: single concentration 1 μM
T1 construct: purchased BPS Bioscience 79628
T1 sequence (P50750 whole entry): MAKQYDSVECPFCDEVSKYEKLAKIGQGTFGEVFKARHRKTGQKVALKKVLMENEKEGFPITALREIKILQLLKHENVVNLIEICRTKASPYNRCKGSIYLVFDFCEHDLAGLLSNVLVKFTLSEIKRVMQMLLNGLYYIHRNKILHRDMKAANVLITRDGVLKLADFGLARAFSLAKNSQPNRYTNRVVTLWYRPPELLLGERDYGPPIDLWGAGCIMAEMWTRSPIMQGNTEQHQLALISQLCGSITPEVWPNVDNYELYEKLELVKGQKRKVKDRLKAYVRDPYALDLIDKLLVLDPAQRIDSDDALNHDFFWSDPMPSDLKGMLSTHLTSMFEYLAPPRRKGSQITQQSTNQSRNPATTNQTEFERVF
T1 sequence (O60563 whole entry partner): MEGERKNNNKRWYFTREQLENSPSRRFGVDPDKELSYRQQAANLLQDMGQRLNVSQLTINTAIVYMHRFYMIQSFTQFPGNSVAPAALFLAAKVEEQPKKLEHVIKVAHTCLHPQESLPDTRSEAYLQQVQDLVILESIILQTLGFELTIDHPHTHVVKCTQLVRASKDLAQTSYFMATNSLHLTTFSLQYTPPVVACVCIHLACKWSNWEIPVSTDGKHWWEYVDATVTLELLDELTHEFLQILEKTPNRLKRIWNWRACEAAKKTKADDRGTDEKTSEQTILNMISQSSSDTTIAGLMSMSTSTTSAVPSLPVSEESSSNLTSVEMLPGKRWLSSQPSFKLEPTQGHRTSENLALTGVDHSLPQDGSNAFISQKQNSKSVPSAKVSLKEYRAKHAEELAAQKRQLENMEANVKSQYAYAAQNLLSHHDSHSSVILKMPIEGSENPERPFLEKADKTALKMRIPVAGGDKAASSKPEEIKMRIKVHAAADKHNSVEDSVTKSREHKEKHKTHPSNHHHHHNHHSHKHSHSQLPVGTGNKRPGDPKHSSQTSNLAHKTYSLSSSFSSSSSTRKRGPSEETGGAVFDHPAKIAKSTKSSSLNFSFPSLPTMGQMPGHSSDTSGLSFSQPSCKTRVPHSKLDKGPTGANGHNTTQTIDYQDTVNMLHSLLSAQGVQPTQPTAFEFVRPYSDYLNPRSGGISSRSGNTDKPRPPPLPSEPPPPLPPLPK
Procedure: (§1) Kinase activity was assessed using the kinase assay kits from BPS Bioscience for CDK1, CDK9 and CDK12 with Kinase Glo MAX in duplicates. Compounds were tested at a single concentration of 1 μM for CDK1 and CDK9 activity, and in a dilution ranging from 0.64 nM to 50 μM for CDK12 activity. Chemiluminescence was read using the Neo Synergy BioTek plate reader.

[2] = target: T2, CDK1 (Homo sapiens, UniProt P06493); experiment: CDK1 in vitro kinase activity, single concentration 1 μM; assay type: biochemical; conditions: single concentration 1 μM
T2 construct: purchased BPS Bioscience 79597
T2 sequence (P06493 whole entry): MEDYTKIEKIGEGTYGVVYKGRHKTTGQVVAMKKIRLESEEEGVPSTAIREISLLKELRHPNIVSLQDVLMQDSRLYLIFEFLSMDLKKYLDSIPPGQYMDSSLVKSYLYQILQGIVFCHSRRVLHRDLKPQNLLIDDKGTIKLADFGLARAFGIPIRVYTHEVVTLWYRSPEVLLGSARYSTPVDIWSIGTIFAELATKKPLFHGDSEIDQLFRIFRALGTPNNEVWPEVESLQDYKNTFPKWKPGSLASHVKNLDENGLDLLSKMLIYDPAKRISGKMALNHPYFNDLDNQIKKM
T2 sequence (P14635 whole entry partner): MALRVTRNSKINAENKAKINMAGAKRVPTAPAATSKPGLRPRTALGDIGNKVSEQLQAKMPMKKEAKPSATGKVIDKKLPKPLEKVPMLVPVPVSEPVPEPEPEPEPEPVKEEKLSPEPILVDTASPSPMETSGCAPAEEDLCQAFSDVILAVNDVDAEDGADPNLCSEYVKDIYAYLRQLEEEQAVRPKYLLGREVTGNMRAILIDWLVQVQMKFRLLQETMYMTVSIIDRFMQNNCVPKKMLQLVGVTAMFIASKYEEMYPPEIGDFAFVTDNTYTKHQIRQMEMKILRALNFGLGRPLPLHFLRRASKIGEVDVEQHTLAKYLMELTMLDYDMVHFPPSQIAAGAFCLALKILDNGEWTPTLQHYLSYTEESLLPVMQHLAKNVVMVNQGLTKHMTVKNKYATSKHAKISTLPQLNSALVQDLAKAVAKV
Procedure: as §1

[3] = tested on: OCI-AML5 cells expressing shRNAs targeting CDK1, 2, 4, 7, 9, cyclin K; experiment: Dose response in OCI-AML5 expressing shRNAs targeting CDK1, 2, 4, 7, 9, cyclin K or control; assay type: cell-based, H. sapiens; conditions: for Class: class from shRNA IC50 profile and cyclin K-eGFP degradation
[4] = tested on: OCI-AML5 cells; experiment: Dose-response proliferative assay in OCI-AML5 (4 days, CellTiterGlo); assay type: cell-based, H. sapiens; conditions: Homo sapiens
Summary of the method: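 OCI-AML5 cells in αMEM, 10% heat-inactivated FBS plus 10 ng/mL GM-CSF, 300 cells/well, exposed to 8-point 1:4 serial dilutions (10 μM down to 0.5 nM). Viability read after 4 days in culture at 37 °C, 5% CO2.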

[5] = tested on: cyclin KeGFP; experiment: Cyclin KeGFP reporter system (eGFP/mCherry MFI by flow cytometry);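 on % degradation cyclin K-eGFP: 10 μM compound for 3 h relative to DMSO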; assay type: cell-based, H. sapiens; conditions: for MFI of cyclin KeGFP over mCherry: OCI-AML5 G7 clone, 3 h, 10 μM, normalized to DMSO (=100); for % degradation cyclin K-eGFP: cyclin K-eGFP reporter
Summary of the method: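 OCI-AML5 clone G7 carrying lentiviral cyclin KeGFP/mCherry reporter. eGFP and mCherry geometric MFI measured by flow cytometry; eGFP/mCherry ratio normalized to DMSO-treated cells.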

[6] = tested on: primary AML specimens; experiment: Dose-response assays in primary AML specimens (6 days, CellTiterGlo); assay type: cell-based, human; conditions: Homo sapiens, 144 h, 6 days, read-out: IC50
Procedure: Freshly thawed primary AML specimens were used for chemical screens. Cryopreserved cells were thawed at 37 °C in IMDM containing 20% FBS and DNase I (100 μg/mL). Cells were resuspended in IMDM supplemented with 15% BIT (BSA, insulin, transferrin; StemCell Technologies), 100 ng/mL SCF, 50 ng/mL FLT3L, 20 ng/mL IL3, 20 ng/mL G-CSF, 10^−4 mol/L b-mercaptoethanol, gentamicin (50 μg/mL), ciprofloxacin (10 μg/mL), SR1 (500 nmol/L) and UM729 (500 nmol/L). Cells were plated in 384-well white plates, 5000 cells per well in 50 μL. Compounds were dissolved in DMSO, diluted in media immediately before use and added to seeded cells at the unique concentration of 1 μM. Control wells received DMSO (0.1%) only. Cell viability was evaluated after 6 days in culture using the CellTiterGlo assay according to the manufacturer’s instruction. Percentage of inhibition for dose response curves was calculated as 100 – (100 × (mean luminescence [compound]/mean luminescence [DMSO])). Dose response curves were generated using nonlinear regression in GraphPad Prism version.
Dose-response assays in primary AML specimens were performed as in chemical screen (see above) with the exception that compounds were tested in serial dilution (8 dilutions, 1:4, 10 μM down to 0.5 nM). Dose-response assays in OCI-AML5 cell line were conducted similarly with the following modifications: 300 cells per well were seeded in 50 μL of cell line media and cell viability was evaluated after 4 days in culture.

[7] = tested on: OCI-AML5 cells expressing shRNA targeting CUL4A or CUL4B; experiment: Dose response in OCI-AML5 expressing shRNAs targeting CUL4A, CUL4B or control; assay type: cell-based, H. sapiens; conditions: for Ratio shCUL4A/shCTRL: ratio of IC50 in shCUL4A vs shCTRL OCI-AML5 cells
[8] = OCI-AML-5, OCI-AML5 cells, read-out: IC50 in AML5

## CC(C)(C)c1cnc(CSc2cnc(NC(=O)C3CCNCC3)s2)o1 [SNS-032, N-[5-[[[5-(1,1-dimethylethyl)-2-oxazolyl]methyl]thio]-2-thiazolyl]-4-piperidinecarboxamide]
[1]
  inhibition at 1 µM: 63%
[2]
  inhibition at 1 µM: 77%
[3]; Homo sapiens, OCI-AML-5, 96 h, OCI-AML5, 4 days, read-out: IC50, sh CDK1
  IC50: 23.3 nM
[3]; Homo sapiens, OCI-AML-5, 96 h, OCI-AML5, 4 days, read-out: IC50, sh ctrl
  IC50: 37.4 nM
[3]; Homo sapiens, OCI-AML-5, 96 h, read-out: IC50, sh CDK7
  IC50: 24.5 nM
[3]; OCI-AML5, 4 days, read-out: IC50, sh CDK1
  IC50: 46.6 nM and 42 nM
[3]; OCI-AML5, 4 days, read-out: IC50, sh ctrl
  IC50: 47.4 nM and 50 nM
[3]
  Class: 2
[3]; read-out: IC50, sh CDK7
  IC50: 41 nM
[4]; [8]
  IC50: 47 nM
[5]
  MFI of cyclin KeGFP over mCherry: 111.9 and 100.6 and 100.2 and 98.8 and 97.9
  % degradation cyclin K-eGFP: 0%
[6]; primary AML specimen 03H109
  IC50: 97.3 nM
[6]; primary AML specimen 04H055
  IC50: 85.7 nM
[6]; primary AML specimen 04H096
  IC50: 118 nM
[6]; primary AML specimen 04H138
  IC50: 101 nM
[6]; primary AML specimen 05H113
  IC50: 153 nM
[6]; primary AML specimen 05H149
  IC50: 547 nM
[6]; primary AML specimen 05H193
  IC50: 164 nM
[6]; primary AML specimen 06H088
  IC50: 217 nM
[6]; primary AML specimen 06H117
  IC50: 134 nM
[6]; primary AML specimen 06H151
  IC50: 135 nM
[6]; primary AML specimen 07H003
  IC50: 94.5 nM
[6]; primary AML specimen 07H131
  IC50: 512 nM
[6]; primary AML specimen 07H144
  IC50: 165 nM
[6]; primary AML specimen 07H155
  IC50: 231 nM
[6]; primary AML specimen 08H018
  IC50: 618 nM
[6]; primary AML specimen 08H021
  IC50: 90.9 nM
[6]; primary AML specimen 08H056
  IC50: 79.4 nM
[6]; primary AML specimen 08H063
  IC50: 146 nM
[6]; primary AML specimen 08H085
  IC50: 309 nM
[6]; primary AML specimen 08H108
  IC50: 70.8 nM
[6]; primary AML specimen 08H118
  IC50: 291 nM
[6]; primary AML specimen 09H016
  IC50: 244 nM
[6]; primary AML specimen 09H070
  IC50: 123 nM
[6]; primary AML specimen 10H014
  IC50: 563 nM
[6]; primary AML specimen 10H046
  IC50: 306 nM
[6]; primary AML specimen 10H107
  IC50: 324 nM
[6]; primary AML specimen 10H127
  IC50: 71.5 nM
[6]; primary AML specimen 10H161
  IC50: 97.5 nM
[6]; primary AML specimen 10H174
  IC50: 211 nM
[6]; primary AML specimen 11H008
  IC50: 161 nM
[6]; primary AML specimen 11H019
  IC50: 214 nM
[6]; primary AML specimen 11H170
  IC50: 523 nM
[6]; primary AML specimen 11H217
  IC50: 74 nM
[6]; primary AML specimen 11H232
  IC50: 299 nM
[6]; primary AML specimen 12H033
  IC50: 280 nM
[6]; primary AML specimen 12H055
  IC50: 183 nM
[6]; primary AML specimen 12H148
  IC50: 208 nM
[6]; primary AML specimen 13H053
  IC50: 563 nM
[6]; primary AML specimen 15H045
  IC50: 256 nM
[6]; primary AML specimen 17H065
  IC50: 2500 nM
[7]; OCI-AML5, 4 days
  potency upon CUL4A or CUL4B downregulation (for SNS-032, THZ531 also DDB1 depletion): remained unaffected
[7]
  Ratio shCUL4A/shCTRL: 1.01

## Cn1cc(-n2cnc3c(NCc4nc5cc(Cl)c(Cl)cc5[nH]4)nc(N4CCOCC4)nc32)cn1 [SR4835]
[1]
  inhibition at 1 µM: 0%
[2]
  inhibition at 1 µM: 0%
[3]; Homo sapiens, OCI-AML-5, 96 h, read-out: IC50, sh CDK1, OCI-AML5, 4 days
  IC50: 25.2 nM
[3]; Homo sapiens, OCI-AML-5, 96 h, read-out: IC50, sh CDK2, OCI-AML5, 4 days
  IC50: 22.8 nM
[3]; Homo sapiens, OCI-AML-5, 96 h, read-out: IC50, sh CDK4, OCI-AML5, 4 days
  IC50: 17.4 nM
[3]; Homo sapiens, OCI-AML-5, 96 h, read-out: IC50, sh CDK7, OCI-AML5, 4 days
  IC50: 20.2 nM
[3]; Homo sapiens, OCI-AML-5, 96 h, read-out: IC50, sh CDK9, OCI-AML5, 4 days
  IC50: 21.4 nM
[3]; Homo sapiens, OCI-AML-5, 96 h, read-out: IC50, sh Cyclin K, OCI-AML5, 4 days
  IC50: 5.7 nM
[3]; Homo sapiens, OCI-AML-5, 96 h, read-out: IC50, sh ctrl, OCI-AML5, 4 days
  IC50: 21.2 nM
[3]
  Class: 1
[3]; read-out: IC50, sh CDK1, OCI-AML5, 4 days
  IC50: 22.7 nM and 35.9 nM
[3]; read-out: IC50, sh CDK2, OCI-AML5, 4 days
  IC50: 21.1 nM and 33.4 nM
[3]; read-out: IC50, sh CDK4, OCI-AML5, 4 days
  IC50: 20.7 nM and 17.8 nM
[3]; read-out: IC50, sh CDK7, OCI-AML5, 4 days
  IC50: 23.7 nM and 34.5 nM
[3]; read-out: IC50, sh CDK9, OCI-AML5, 4 days
  IC50: 17.3 nM and 16.7 nM
[3]; read-out: IC50, sh Cyclin K, OCI-AML5, 4 days
  IC50: 8.31 nM and 5.07 nM
[3]; read-out: IC50, sh ctrl, OCI-AML5, 4 days
  IC50: 17.9 nM and 15.9 nM
[4]; [8]
  IC50: 18 nM
[5]
  MFI of cyclin KeGFP over mCherry: 16.0 and 15.3 and 15.4
  % degradation cyclin K-eGFP: 84%
[6]; primary AML specimen 03H109
  IC50: 23.9 nM
[6]; primary AML specimen 04H055
  IC50: 37.9 nM
[6]; primary AML specimen 04H096
  IC50: 37.8 nM
[6]; primary AML specimen 04H138
  IC50: 46.2 nM
[6]; primary AML specimen 05H113
  IC50: 37.3 nM
[6]; primary AML specimen 05H149
  IC50: 45.5 nM
[6]; primary AML specimen 05H193
  IC50: 42.9 nM
[6]; primary AML specimen 06H088
  IC50: 40.2 nM
[6]; primary AML specimen 06H117
  IC50: 34.3 nM
[6]; primary AML specimen 06H151
  IC50: 28.5 nM
[6]; primary AML specimen 07H003
  IC50: 44.1 nM
[6]; primary AML specimen 07H131
  IC50: 99 nM
[6]; primary AML specimen 07H144
  IC50: 31.9 nM
[6]; primary AML specimen 07H155
  IC50: 55.9 nM
[6]; primary AML specimen 08H018
  IC50: 41.3 nM
[6]; primary AML specimen 08H021
  IC50: 29.8 nM
[6]; primary AML specimen 08H056
  IC50: 70.5 nM
[6]; primary AML specimen 08H063
  IC50: 125 nM
[6]; primary AML specimen 08H085
  IC50: 38.9 nM
[6]; primary AML specimen 08H108
  IC50: 41.7 nM
[6]; primary AML specimen 08H118
  IC50: 33.5 nM
[6]; primary AML specimen 09H016
  IC50: 35.3 nM
[6]; primary AML specimen 09H070
  IC50: 124 nM
[6]; primary AML specimen 10H014
  IC50: 38 nM
[6]; primary AML specimen 10H046
  IC50: 38.8 nM
[6]; primary AML specimen 10H107
  IC50: 37.1 nM
[6]; primary AML specimen 10H127
  IC50: 48 nM
[6]; primary AML specimen 10H161
  IC50: 42.2 nM
[6]; primary AML specimen 10H174
  IC50: 38.2 nM
[6]; primary AML specimen 11H008
  IC50: 45.7 nM
[6]; primary AML specimen 11H019
  IC50: 41 nM
[6]; primary AML specimen 11H170
  IC50: 141 nM
[6]; primary AML specimen 11H217
  IC50: 48.8 nM
[6]; primary AML specimen 11H232
  IC50: 39.8 nM
[6]; primary AML specimen 12H033
  IC50: 61.4 nM
[6]; primary AML specimen 12H055
  IC50: 44.7 nM
[6]; primary AML specimen 12H148
  IC50: 44.4 nM
[6]; primary AML specimen 13H053
  IC50: 55.9 nM
[6]; primary AML specimen 15H045
  IC50: 28.4 nM
[6]; primary AML specimen 17H065
  IC50: 59.1 nM
[7]
  Ratio shCUL4A/shCTRL: 4.77

## CN(CCOCCOCCN)c1ccc(CC(=O)Nc2ncc(SCc3cccnc3)s2)cc1 [UOM-005790]
[4]; OCI-AML-5, 96 h, 4 days incubation, read-out: IC50 OCI-AML5
  IC50: 680 nM
